In patent US6669946B2, “METHOD FOR IDENTIFYING INDIVIDUALS SUFFERING FROM A CELLULAR ABNORMALITY SOME OF WHOSE ABNORMAL CELLS PRESENT COMPLEXES OF HUMAN LEUKOCYTE ANTIGEN TYROSINASE DERIVED PEPTIDES, AND METHODS FOR TREATING SAID INDIVIDUALS” (Ludwig Institute for Cancer Research, priority 1992, dated 2003):
Entries after “also recorded” stand apart in the source; their conditions may differ.

What was measured:
Format in all cases: cell-based, human
[1] = test system: cytolytic T cell clone CTL IVSB; assay: 51Cr release assay on peptide-sensitized HLA-A2 presenting cells with CTL IVSB; conditions: SK29-MEL 1.218 and T202LB; peptide 100 μM down to 0.01 μM; E/T ratio 40/1; four hours
Protocol: (§1) Using the methodologies described in examples 1-5, various fragments of the CDNA were cotransfected with a gene for HLA-A2 in COS-7 cells, and TNF release assays were performed. […] The 400 base fragment used corresponded to bases 711 to 1152 of SEQ ID NO: 1. The amino acid sequence for which the fragment codes was deduced, and this sequence was then compared to the information provided by Hunt et al., Science 255: 1261 (1992), and Falk et al., Nature 351: 290 (1991), the disclosures of which are both incorporated by reference in their entirety. These references discuss consensus sequences for HLA-A2 presented peptides. Specifically, Hunt discusses nonapeptides, where either Leu or Ile is always found at the second position, Leu being the “dominant residue”. The ninth residue is described as always being a residue with an aliphatic hydrocarbon side chain. Val is the dominant residue at this position. […]
(§2) The tyrosinase loss variants, cytolytic T cell clones, and peptides were incubated for one hour in a solution containing ^51Cr, at 37° C., either with or without anti HLA-A2 antibody MA2.1, which was used to stabilize empty HLA-A2 molecules. […] After 30 minutes, effector cells were added at an E/T ratio of 40/1 and four hours later, 10λ of supernatant were collected and radioactivity counted.

[2] = test system: cytolytic T cell clone CTL 2/9; assay: 51Cr release assay on peptide-sensitized HLA-A2 presenting cells with CTL 2/9; conditions: SK29-MEL 1.218 and T202LB; peptide 100 μM down to 0.01 μM; E/T ratio 40/1; four hours
Protocol: as §1, §2

CTL clone CTL 210/9 = assay: Parallel peptide recognition experiment with CTL 210/9
Protocol: as §1
The tyrosinase loss variants, cytolytic T cell clones, and peptides were incubated for one hour in a solution containing ^51Cr, at 37° C., either with or without anti HLA-A2 antibody MA2.1, which was used to stabilize empty HLA-A2 molecules. […] After 30 minutes, effector cells were added at an E/T ratio of 40/1 and four hours later, 10λ of supernatant were collected and radioactivity counted. […]

CTL IVSB = assay: TNF release by CTL IVSB on COS-7 cells cotransfected with HLA-A2 and cDNA pool or fragment; conditions: COS-7 cotransfected with cDNA fragment and HLA-A2 gene
Protocol: (§3) The amplified plasmids were then transfected into eukaryotic cells. Samples of COS-7 cells were seeded, at 15,000 cells/well into tissue culture flat bottom microwells, in Dulbeco's modified Eagles Medium (“DMEM”) supplemented with 10% fetal calf serum. The cells were incubated overnight at 37° C., medium was removed and then replaced by 30 μl/well of DMEM medium containing 10% Nu serum, 400 μg/ml DEAE-dextran, 100 μM chloroquine, 100 ng of plasmid pcDNA-I/Amp-A2 and 100 ng of DNA of a pool of the cDNA library described supra. Plasmid pcDNA-I/Amp-A2 contains the HLA-A2 gene from SK29-MEL. Following four hours of incubation at 37° C, the medium was removed, and replaced by 50 μl of PBS containing 10% DMSO. This medium was removed after two minutes and replaced by 200 μl of DMEM supplemented with 10% of FCS.
(§4) Following this change in medium, COS cells were incubated for 48 hours at 37° C. Medium was then discarded, and 2000 cells of either of the described CTL clones were added, in 100 μl of Iscove medium containing 10% pooled human serum. When clone 210/9 was used, the medium was supplemented with 25 U/ml of IL-2. Supernatant was removed after 24 hours, and TNF content was determined in an assay on WEHI cells, as described by Traversari et al., Immunogenetics 35: 145-152 (1992), the disclosure of which is incorporated by reference. […]

CTL 210/9 = assay: TNF release by CTL 210/9 on COS-7 cells cotransfected with HLA-A2 and cDNA pool or fragment; conditions: COS-7 cotransfected with cDNA fragment and HLA-A2
Protocol: as §3, §4

| Molecule | recognition of complexes of HLA-A2 and peptide by CTL IVSB [1] | recognition of peptide by CTL 2/9 [2] | recognition of complexes of HLA-A2 and peptide by CTL 210/9 (CTL clone CTL 210/9) | TNF release from / recognition by CTL IVSB (CTL IVSB) | recognition by CTL 210/9 of antigen on transfected cells (CTL 210/9) |
| --- | --- | --- | --- | --- | --- |
| Tyr Met Asn Gly Thr Met Ser Gln Val (YMNGTMSQV) [SEQ ID NO: 2, tyrosinase derived nonapeptide presented by HLA-A2] | recognition; also recorded: recognized | not | not recognized; also recorded: did not recognize |  |  |
| second gene fragment: fragment from base 1 to base 1092 of SEQ ID NO: 1, not encoding SEQ ID NO: 2 (nucleic acid) DNA: GACCTTGTGAGGACTAGAGGAAGAATGCTCCTGGCTGTTTTGTACTGCCTGCTGTGGAGTTTCCAGACCTCCGCTGGCCATTTCCCTAGAGCCTGTGTCTCCTCTAAGAACCTGATGGAGAAGGAATGCTGTCCACCGTGGAGCGGGGACAGGAGTCCCTGTGGCCAGCTTTCAGGCAGAGGTTCCTGTCAGAATATCCTTCTGTCCAATGCACCACTTGGGCCTCAATTTCCCTTCACAGGGGTGGATGACCGGGAGTCGTGGCCTTCCGTCTTTTATAATAGGACCTGCCAGTGCTCTGGCAACTTCATGGGATTCAACTGTGGAAACTGCAAGTTTGGCTTTTGGGGACCAAACTGCACAGAGAGACGACTCTTGGTGAGAAGAAACATCTTCGATTTGAGTGCCCCAGAGAAGGACAAATTTTTTGCCTACCTCACTTTAGCAAAGCATACCATCAGCTCAGACTATGTCATCCCCATAGGGACCTATGGCCAAATGAAAAATGGATCAACACCCATGTTTAACGACATCAATATTTATGACCTCTTTGTCTGGATGCATTATTATGTGTCAATGGATGCACTGCTTGGGGGATCTGAAATCTGGAGAGACATTGATTTTGCCCATGAAGCACCAGCTTTTCTGCCTTGGCATAGACTCTTCTTGTTGCGGTGGGAACAAGAAATCCAGAAGCTGACAGGAGATGAAAACTTCACTATTCCATATTGGGACTGGCGGGATGCAGAAAAGTGTGACATTTGCACAGATGAGTACATGGGAGGTCAGCACCCCACAAATCCTAACTTACTCAGCCCAGCATCATTCTTCTCCTCTTGGCAGATTGTCTGTAGCCGATTGGAGGAGTACAACAGCCATCAGTCTTTATGCAATGGAACGCCCGAGGGACCTTTACGGCGTAATCCTGGAAACCATGACAAATCCAGAACCCCAAGGCTCCCCTCTTCAGCTGATGTAGAATTTTGCCTGAGTTTGACCCAATATGAATCTGGTTCCATGGATAAAGCTGCCAATTTCAGCTTTAGAAATACACTGGAAGGATTTGCTAGTCCACTTACTGGGATAGCGGAT |  |  |  | did not | recognized |
| 400 base pair fragment: fragment corresponding to bases 711 to 1152 of SEQ ID NO: 1 (nucleic acid) DNA: AAACTTCACTATTCCATATTGGGACTGGCGGGATGCAGAAAAGTGTGACATTTGCACAGATGAGTACATGGGAGGTCAGCACCCCACAAATCCTAACTTACTCAGCCCAGCATCATTCTTCTCCTCTTGGCAGATTGTCTGTAGCCGATTGGAGGAGTACAACAGCCATCAGTCTTTATGCAATGGAACGCCCGAGGGACCTTTACGGCGTAATCCTGGAAACCATGACAAATCCAGAACCCCAAGGCTCCCCTCTTCAGCTGATGTAGAATTTTGCCTGAGTTTGACCCAATATGAATCTGGTTCCATGGATAAAGCTGCCAATTTCAGCTTTAGAAATACACTGGAAGGATTTGCTAGTCCACTTACTGGGATAGCGGATGCCTCTCAAAGCAGCATGCACAATGCCTTGCACATCTATATGAATGGAACAATGTCCCAG |  |  |  | provoked TNF release |  |
